Test results published in BigSolDB 2.1.

Nc1ccc([N+](=O)[O-])cc1[N+](=O)[O-]
solubility (mole fraction)
Conditions	in acetone	in acetonitrile	in ethanol	in ethyl acetate	in isopropanol	in methanol	in n-butanol	in n-propanol	in toluene
278.15 K	0.0281	0.00772	0.00126	0.0116	0.000854	0.00126	0.00144	0.00103	0.00033
280.65 K	0.0304	0.00829	0.0014	0.0127	0.00097	0.00138	0.00154	0.00116	0.000383
283.15 K	0.0328	0.00893	0.00154	0.0138	0.0011	0.00156	0.00172	0.00131	0.000443
285.65 K	0.0355	0.0098	0.00173	0.0151	0.00125	0.00173	0.00193	0.00146	0.000511
288.15 K	0.0381	0.0108	0.00193	0.0163	0.00142	0.00192	0.00216	0.00163	0.000573
290.65 K	0.0407	0.0118	0.00211	0.0177	0.00159	0.00212	0.00243	0.0018	0.000642
293.15 K	0.0437	0.0127	0.00232	0.0191	0.00177	0.00232	0.00271	0.00198	0.000724
295.65 K	0.0467	0.0138	0.00254	0.0205	0.002	0.00253	0.00299	0.00217	0.000814
298.15 K	0.0497	0.0149	0.00278	0.0221	0.00227	0.00276	0.00329	0.00238	0.000917
300.65 K	0.0531	0.0161	0.00304	0.0238	0.00253	0.00301	0.00365	0.00262	0.00102
303.15 K	0.0565	0.0174	0.00331	0.0257	0.00281	0.00327	0.00406	0.00287	0.00114
305.65 K	0.0604	0.0188	0.00359	0.0278	0.00313	0.00356	0.00447	0.00314	0.00128
308.15 K	0.0642	0.0203	0.00391	0.0301	0.00346	0.00386	0.00494	0.00346	0.00142
310.65 K	0.0682	0.0216	0.00428	0.0324	0.00383	0.00421	0.00543	0.0038	0.00158
313.15 K	0.0723	0.023	0.00468	0.035	0.00426	0.00456	0.00589	0.00413	0.00175
315.65 K	0.0769	0.0247	0.00511	0.0374	0.00469	0.00493	0.00646	0.00452	0.00193
318.15 K	0.0815	0.0264	0.00555	0.0403	0.00522	0.00537	0.00712	0.00493	0.00217
